How the values were obtained:
Ca. Phytoplasma vitis = test: Open field testing on phytoplasma, ddPCR quantification of DNA and RNA in Pervinca rosea; type: in vivo; conditions: 2 L/ha, endotherapy treatment, 48 hours after exposure, high values = reduced/no antibacterial activity; for % DNA: untreated 91; for % RNA: untreated 94
Method: Open Filed Testing on Phytoplasma—Antibacterial Activity on Ca. Phytoplasma vitis by Mixtures of Fatty Acids and Peptides
The activity on phytoplasma of three peptides (SEQ.ID.NO.: 1, 2 and 9), of crotonic and pelargonic acid and of the mixtures of these fatty acids with the aforementioned peptides were evaluated on Pervinca rosea suitably contaminated by Ca. Phytoplasma vitis.
The peptides of SEQ.ID.NO.: 1, 2 and 9 were dissolved in water at a concentration of 10% w/w. Aqueous solutions of crotonic and pelargonic acids were prepared at a concentration of 10% w/w. Aqueous solutions of peptides and solutions of fatty acids were mixed together, in order to obtain six different mixtures at a concentration of 10% w/w of peptide and acid.
The evaluation of the efficacy of the products used was evaluated with ddPCR (Droplet Digital PCR) technique for the quantification of the genetic material (DNA and RNA) after 48 hours from exposure to endotherapy treatment. High % DNA and RNA values are related to reduced/no antibacterial activity.

Fusarium graminearum = type: in vivo; conditions: 2 L/ha of 10% w/w solution; one application 2 days after inoculation; incidence of affected leaves vs untreated

C/C=C/C(=O)O [Crotonic acid]
% DNA (Ca. Phytoplasma vitis): 76%
% RNA (Ca. Phytoplasma vitis): 84%
Efficacy (%) 1° check (Fusarium graminearum): 8%
Efficacy (%) 2° check (Fusarium graminearum): 7%
Efficacy (%) 3° check (Fusarium graminearum): 10%

CCCCCCCCC(=O)O [Pelargonic acid]
% DNA (Ca. Phytoplasma vitis): 84%
% RNA (Ca. Phytoplasma vitis): 86%
Efficacy (%) 1° check (Fusarium graminearum): 10%
Efficacy (%) 2° check (Fusarium graminearum): 8%
Efficacy (%) 3° check (Fusarium graminearum): 9%

Hs_AFP1: plant defensin antimicrobial peptide, SEQ.ID.NO: 1, per se known (DGVKLCDVPSGTWSGHCGSSSKCSQQCKDREHFAYGGACHYQFPSVKCFCKRQC; None)
% DNA (Ca. Phytoplasma vitis): 75%
% RNA (Ca. Phytoplasma vitis): 78%
Efficacy (%) 1° check (Fusarium graminearum): 35%
Efficacy (%) 2° check (Fusarium graminearum): 27.4%
Efficacy (%) 3° check (Fusarium graminearum): 26.5%

Ps_Def1: plant defensin antimicrobial peptide, SEQ.ID.NO: 9 (RMCKTPSGKFKGYCVNNTNCKNVCRTEGFPTGSCDFHVAGRKCYCYKPCP; None)
% DNA (Ca. Phytoplasma vitis): 82%
% RNA (Ca. Phytoplasma vitis): 80%
Efficacy (%) 1° check (Fusarium graminearum): 30%
Efficacy (%) 2° check (Fusarium graminearum): 27%
Efficacy (%) 3° check (Fusarium graminearum): 32%

Rs_AFP2: plant defensin antimicrobial peptide, SEQ.ID.NO: 2, per se known (QKLCQRPSGTWSGVCGNNNACKNQCIRLEKARHGSCNYVFPAHKCICYFPC; None)
% DNA (Ca. Phytoplasma vitis): 81%
% RNA (Ca. Phytoplasma vitis): 80%
Efficacy (%) 1° check (Fusarium graminearum): 38%
Efficacy (%) 2° check (Fusarium graminearum): 34%
Efficacy (%) 3° check (Fusarium graminearum): 25.4%

Source: patent US20240245059A1 (priority 2021, published 2024)
